Reference: publication PMC10892871 (Viruses, 2024)
Where “and” joins values, the source holds several entries; their conditions need not be identical. Equal values may be shown once.

System: Omicron BQ.1.1 SARS-CoV-2 variant
Assay type: cell-based

O=c1nc(NO)ccn1[C@@H]1O[C@H](CO)[C@@H](O)[C@H]1O [EIDD-1931, reference compound]
IC50 (read-out: IC50 vs. BQ.1.1 Mean ± SD): 1590 nM and 1600 nM
IC90 (read-out: IC90 vs. BQ.1.1 Mean ± SD): 1800 ± 700 nM
